Read-outs that look alike come from different tables or passages of the source. A value given as a limit tells only on which side of the number the result lay.

Data set [1] addresses T1, KRAS-G2C/SOS1 (Homo sapiens, UniProt P01116, G12C).
T1 construct: Tag2 (identity not disclosed)
Briefly: KRAS-G12C/SOS1 binding experiment (HTRF). The settings on record: Tag2-KRAS-G12C protein and Tag1-SOS protein. Here is the method:
• A) Dilute Tag2-KRAS-G12C protein and Tag1-SOS protein with diluent at 1:100, anti-Tag1-Tb3+ antibody and anti-Tag2-XL665 with detection buffer at 1:100 or 1:25 respectively Dilute. • B) Dilute the compound to be tested with diluent starting from […] concentration, 4 times gradient, a total of 6 concentration gradients, and dilute to 10× stock solution. • C) In a 96-well plate, add 4 uLTag2-KRAS-G12C protein, 4 uL Tagl-SOS protein, 2 ul dilution solution (positive control) or test compound (different concentrations of 10× stock solution) to each well in sequence, a total of 10 ul, and incubate at room temperature for […], add pre-mixed 5 uL anti-Tagl-Tb3+ and 5 uL anti-Tag2-xL665, seal the plate, incubate at room temperature for 2 hours, and read the HTRF signal with a TECAN INFINITEF NANO+ microplate reader.
The ratio of […] and donor excitation signals for each single well was calculated using the formula ratio=665 nm signal value/620 nm signal value×[…]. Data were processed using Graphpadprism5 software. IC50 values were calculated by sigmoidal dose-response curve fitting.

Data set [2] concerns H358 (KRAS G12C mutant) cells. Kind of data set: Tumor cell proliferation inhibition assay (Cell Titer-Glo, 72 h). It counts as cell-based. The following applies: inhibition of tumor cell proliferation, 72 hours with compound, 10% fetal bovine serum, read-out: NCI-H538 IC50(nm). An outline of the steps:
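H358 cells seeded, cultured 24 h, then exposed to serial compound concentrations for 72 h in 10% FBS at 37 °C, 5% CO2. ATP measured by CellTiter-Glo; % inhibition relative to DMSO (max) and medium-only (min) signals. IC50 from sigmoid dose-response fit, binned into categories A–D.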
A general note: Cellular ATP, detected with luciferase, serves as a proxy for viable cell number.

For data set [3] the following is noted: background statement; cited from earlier work.
The target of data set [4] is KRAS G12C (Homo sapiens, UniProt P01116, G12C). The settings on record: background statement; cited from earlier work.

Broadly, the IC50 is the concentration needed to halve the response being measured. On to “7-(8-Fluoronaphthyl)-6-fluoro-4-(((S)-4-(2-fluoroacryloyl)-3-carbonitrileethylpiperazine)-1-yl)-2-((((S)-1-methylpyrrolidin-2-yl)methoxy)-1,8-naphthyridine [Compound 5]”, for which the IC50 in data set [1] was below 50 nM; in data set [2], at most 50 nM. Turning to `C=CC(=O)N1CC(N2CCN(C(=O)CNc3cc(C4(C)CC4)c(Cl)cc3O)CC2)C1` [ARS-853], the pharmacokinetic properties entry in data set [3] was “poor”. As for `C=CC(=O)N1CCN(c2ncnc3c(F)c(-c4c(O)cccc4F)c(Cl)cc23)CC1` [ARS-1620], in data set [4], the “tumor effect in vivo” value was “induce tumor regression”. Regarding `C=CC(=O)N1CCN(c2cc(OC[C@@H]3CCCN3C)nc3nc(-c4c(O)cccc4F)ccc23)[C@H](C)C1` [Compound 1, 7-(2-Fluoro-6-hydroxyphenyl)-4-(((R)-4-acryloyl-2-methylpiperazine)-1-yl)-2-(((S)-1-methylpyrrolidin-2-yl)methoxy)-1,8-naphthyridine], the IC50 in data set [1] is above 500 nM; in data set [2], above 2000 nM. Consider `C=C(F)C(=O)N1CCN(c2cc(OC[C@@H]3CCCN3C)nc3nc(-c4c(O)cccc4F)c(F)cc23)[C@H](C)C1` [Compound 2, 7-(2-Fluoro-6-hydroxyphenyl)-6-fluoro-4-(((R)-4-(2-fluoroacryloyl)-2-methylpiperazine)-1-yl)-2-(((S)-1-methylpyrrolidin-2-yl)methoxy)-1,8-naphthyridine], for which the IC50 in data set [1] is above 500 nM; in data set [2] (Homo sapiens, NCI-H358), above 2000 nM. Consider `C=CC(=O)N1CCN(c2cc(OC[C@@H]3CCCN3C)nc3nc(-c4c(O)cccc4F)c(F)cc23)C[C@@H]1CC#N` [Compound 3], for which the IC50 in data set [1] was above 500 nM; in data set [2] (Homo sapiens, NCI-H358) it was above 2000 nM. In the same order, the values of `C=C(F)C(=O)N1CCN(c2cc(OC[C@@H]3CCCN3C)nc3nc(-c4c(O)cccc4F)c(F)cc23)C[C@@H]1CC#N` [Compound 4, 7-(2-Fluoro-6-hydroxyphenyl)-6-fluoro-4-(((S)-4-(2-fluoroacryloyl)-3-carbonitrileethylpiperazine)-1-yl)-2-(((S)-1-methylpyrrolidin-2-yl)methoxy)-1,8-naphthyridine] are above 500 nM and above 2000 nM. Turning to `C=CC(=O)N1CCN(c2cc(OC[C@@H]3CCCN3C)nc3nc(-c4cccc5cccc(F)c45)c(F)cc23)[C@H](C)C1` [Compound 7], the IC50 in data set [1] was below 50 nM; in data set [2] (Homo sapiens, NCI-H358), at most 50 nM. Turning to `C=CC(=O)N1C2CCC1CN(c1cc(OC[C@@]34CCCN3C[C@H](F)C4)nc3nc(-c4cccc5cccc(F)c45)c(F)cc13)C2` [Compound 28], the IC50 in data set [1] is below 50 nM; in data set [2] (Homo sapiens, NCI-H358) it was at most 50 nM. Turning to `C=CC(=O)N1CCN(c2nc(OC[C@@]34CCCN3CC(F)(F)C4)nc3nc(-c4cccc5cccc(F)c45)ccc23)[C@H](C)C1` [Compound 86, 7-(8-Fluoronaphthyl)-4-(((R)-4-Acryloyl-2-methylpiperazine)-1-yl)-2-(((S)-2,2-difluorotetrakisHydro-1H-pyrincycl-7a(5H)-yl)methoxy)pyridine[2,3-d]lopyrimidine], the IC50 in data set [2] is at most 50 nM. Same read-out and setting: next, `C=CC(=O)N1CCN(c2nc(OC[C@@]34CCCN3C[C@H](F)C4)nc3nc(-c4cccc5cccc(C)c45)ccc23)[C@H](C)C1` [Compound 89, 7-(8-Methylnaphthyl)-4-(((R)-4-Acryloyl-2-methylpiperazine)-1-yl)-2-(((2R,7aS)-2-fluorotetrahydro-1H-pyrincycl-7a(5H)-yl)methoxy)pyridine[2,3-d]lopyrimidine]: at most 50 nM. As to `C=C(F)C(=O)N1CCN(c2nc(OC[C@@]34CCCN3CC(F)(F)C4)nc3nc(-c4cccc5cccc(F)c45)ccc23)C[C@@H]1CC#N` [Compound 90, 7-(8-Fluoronaphthyl)-4-(((S)-4-(2-fluoroacryloyl)-3-carbonitrileethylpiperazine)-1-yl)-2-(((S)-2,2-difluorotetrahydro-1H-pyrincyclo-7a(5H)-yl)methoxy)pyridine[2,3-d]lopyrimidine], the IC50 in data set [2] is at most 50 nM.

Consider `C=C(F)C(=O)N1CCN(c2nc(OC[C@@]34CCCN3CC(F)(F)C4)nc3nc(-c4cc(O)cc5cccc(F)c45)ccc23)C[C@@H]1CC#N` [Compound 91, 7-(3-Hydroxy-8-fluoronaphthyl)-4-(((S)-4-(2-fluoroacryloyl)-3-carbonitrileethylpiperazine)-1-yl)-2-(((S)-2,2-difluorotetrahydro-1H-pyrincycl-7a(5H)-yl)methoxy)pyridine[2,3-d]lopyrimidine], for which the IC50 in data set [2] was at most 50 nM. Turning to `C=C(F)C(=O)N1CCN(c2nc(OC[C@@]34CCCN3C[C@H](F)C4)nc3nc(-c4cccc5cccc(F)c45)ccc23)C[C@@H]1CC#N` [Compound 92, 7-(8-Fluoronaphthyl)-4-(((S)-4-(2-fluoroacryloyl)-3-carbonitrileethylpiperazine)-1-yl)-2-(((2R,7aS)-2-fluorotetrahydro-1H-pyrincycl-7a(5H)-yl)methoxy)pyridine[2,3-d]lopyrimidine], in data set [2], the concentration for half-maximal inhibition (IC50) is at most 50 nM.

Consider `C=C(F)C(=O)N1CCN(c2nc(OC[C@@]34CCCN3C[C@H](F)C4)nc3nc(-c4cccc5cccc(C)c45)ccc23)C[C@@H]1CC#N` [Compound 93], for which the IC50 in data set [2] was at most 50 nM.

Values taken from patent publication US20240182470A1, “KRASG12C MUTANT PROTEIN INHIBITOR, PREARATION AND USE THEREOF” (YA THERAPEUTICS INC, priority 2021, published 2024).
